Laboratory results as given in patent US20240408096A1, “DOSING REGIMENS FOR ORAL ALK2 KINASE INHIBITORS” (BioCryst Pharmaceuticals, Inc., priority 2020, published 2024).
Entries after “also recorded” stand apart in the source; their conditions may differ.

Columns and labels:
[1] = system: G-protein coupled receptor (GPCRs) related kinases; assay: off-target screening study
[2] = ECG / QTc after oral administration to dogs; format: in vivo, dog; settings: HEDs up to 667 mg based on a 60 kg subject
[3] = plasma protein binding, human; format: in vitro ADME; settings: in vitro
[4] = molecular target: CYP2E1 (Homo sapiens, UniProt P05181); assay: CYP inhibition in vitro; format: in vitro ADME
CYP2E1, sequence (P05181 whole entry): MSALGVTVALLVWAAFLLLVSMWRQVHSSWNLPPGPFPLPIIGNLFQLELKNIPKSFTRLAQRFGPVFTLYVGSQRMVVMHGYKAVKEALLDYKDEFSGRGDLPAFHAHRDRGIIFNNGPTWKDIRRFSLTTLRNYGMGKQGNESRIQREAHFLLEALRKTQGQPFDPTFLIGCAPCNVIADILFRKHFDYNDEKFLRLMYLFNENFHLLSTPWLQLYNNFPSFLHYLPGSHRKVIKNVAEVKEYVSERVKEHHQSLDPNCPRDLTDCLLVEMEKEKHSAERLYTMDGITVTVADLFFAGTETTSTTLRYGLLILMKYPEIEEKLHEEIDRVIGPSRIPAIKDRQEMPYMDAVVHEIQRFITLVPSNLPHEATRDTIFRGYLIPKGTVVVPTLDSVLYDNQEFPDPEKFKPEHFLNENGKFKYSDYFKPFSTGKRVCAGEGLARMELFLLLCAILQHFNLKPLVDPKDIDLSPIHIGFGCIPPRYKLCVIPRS

[5] = molecular target: CYP2C19 (Homo sapiens, UniProt P33261); assay: CYP inhibition in vitro; format: in vitro ADME
CYP2C19, sequence (P33261 whole entry): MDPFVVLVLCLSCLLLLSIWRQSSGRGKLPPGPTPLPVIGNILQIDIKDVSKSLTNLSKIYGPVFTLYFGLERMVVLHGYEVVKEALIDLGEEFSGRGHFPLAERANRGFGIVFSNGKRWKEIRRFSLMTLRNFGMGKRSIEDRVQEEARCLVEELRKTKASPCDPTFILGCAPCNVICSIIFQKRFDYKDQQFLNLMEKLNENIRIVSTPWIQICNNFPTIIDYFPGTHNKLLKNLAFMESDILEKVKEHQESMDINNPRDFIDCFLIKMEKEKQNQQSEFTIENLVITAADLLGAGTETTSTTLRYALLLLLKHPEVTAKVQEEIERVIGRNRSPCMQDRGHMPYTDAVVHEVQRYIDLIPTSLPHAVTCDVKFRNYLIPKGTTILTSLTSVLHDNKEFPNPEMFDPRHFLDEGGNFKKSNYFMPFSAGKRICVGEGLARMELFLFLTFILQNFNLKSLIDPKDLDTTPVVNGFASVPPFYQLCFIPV

[6] = Phase 1 Part 2 (MAD) plasma PK; format: in vivo, human; settings: for Cmax / AUC0-24 / Tmax / AUCtau / Ctau / t1/2: Part 2 MAD; for Cmax / AUC0-24 / AUCtau / Ctau: geometric mean (CV%); for Tmax / t1/2: median (min, max)
Procedure: Four sequential MAD cohorts were dosed.
For each cohort of Part 2, the daily dose of study drug was administered as a single dose (1 time daily or QD). Similar to Part 1 of the study, following a screening period to determine eligibility, subjects in each cohort entered the CRU on the […] of Day −1. Study eligibility was re-confirmed upon admission to the CRU, and subjects remained in the CRU overnight prior to dosing on Day 1. Subjects received a final morning dose of study drug on the last day of dosing. Subjects were discharged from the CRU following sample collection on Day 11. Dosage administration was supervised by study personnel and all subjects completed dosing per protocol. […] Subjects returned to the CRU on Day 23 (+2 days) for final follow-up safety assessments.
Serial venous blood samples were withdrawn via an indwelling cannula or by venipuncture according to the schedule in Tables 4 and 5 for Parts 1 and 2, respectively. Samples were collected into 4 mL lithium heparin tubes. The acceptable deviations from the nominal blood sampling times in Part 1 and Part 2 are as follows: the pre-dose blood sample will be taken ≤1 hour before dosing; 0 to 1 hour post-dose samples will be taken within +2 minutes of the nominal post-dose sampling time; >1 to 12 hours post-dose samples will be taken within +10 minutes of the nominal post-dose sampling time; and >12 hours post-dose samples will be taken within +30 minutes of the nominal post-dose sampling time if subjects are resident in the clinic. […]
In all derivations of PK parameters, 0 will be substituted for concentrations below the quantification limit (BQL) of the assay. Samples that are BQL but are between 2 samples with detectable concentrations will be excluded from PK analysis.
Dose proportionality was evaluated over all fasted doses within a study part based upon AUC0-inf (Part 1), AUCtau (Part 2), AUC0-t, and Cmax using the power model. The analysis was performed for Day 1 (Parts 1 and 2) and Day 7 (Part 2).
Dose proportionality for PK parameters was assessed by restricted maximum likelihood using SAS PROC MIXED (SAS STAT software, Cary N.C.). The mean slope was estimated from the power model and the corresponding 90% confidence interval (CI) calculated. Dose proportionality was also examined using an analysis of variance (ANOVA) method, where PK parameters for each dose were compared with a reference dose on a pair-wise basis. The ratio of geometric least squares (GLS) means and the corresponding 90% CI was estimated for each PK parameter of interest.
Accumulation ratios were calculated using AUC values from serial sampling after the first and last dose in Part 2. […] A mixed-effects model with a fixed effect for day and a random subject effect was used to estimate the difference between AUCtau and AUC0-t on the log scale.
Time to steady-state was evaluated in Part 2 using Ctrough (observed plasma concentration immediately before dosing) levels, where sufficient samples existed to determine steady state. The following timepoints were used in the analysis for once daily dosing: 24, 48, and 72 hours post dose (for Day 1) and pre-dose and 24 hours post dose on the last day of dosing (Day 7).

[7] = Phase 1 Parts 1 and 2 blood pressure pharmacodynamics / exposure-response; format: in vivo, human
Excerpt: Where possible, systolic and diastolic BP measurements will be used to determine the change from baseline between each active treatment relative to that obtained on subjects receiving placebo within a study part. At each time point blood pressure data is collected, an individual subject's change from baseline will be calculated.

[8] = all cohorts and placebo subjects

SMILES: COc1cc(-n2cnc(Nc3nc(N4CCC[C@H]4C(N)=O)nc4sccc34)c2)cc(OC)c1OC.O=C(O)CC(O)(CC(=O)O)C(=O)O [Compound A]
- off-target effects [1]: minimal off-target effects
- prolongation of corrected QT interval (QTc) or other ECG changes [2]: did not induce prolongation of corrected QT interval (QTc)
- plasma protein binding [3]: ≥ 99.9%
- CYP2E1 inhibition [4]: not an inhibitor
- CYP2C19 inhibition [5]: is an inhibitor
- Day 1 AUC0-24, geometric least square mean ([6]; 5 mg QD): 797.89 ng·h/mL
- Day 7 AUCtau, geometric least square mean ([6]; 5 mg QD): 915.48 ng·h/mL
- Day 1 AUC0-24, geometric least square mean ([6]; 10 mg QD): 1703.36 ng·h/mL
- Day 7 AUCtau, geometric least square mean ([6]; 10 mg QD): 2022.93 ng·h/mL
- Day 1 AUC0-24, geometric least square mean ([6]; 15 mg QD): 2204.47 ng·h/mL
- Day 7 AUCtau, geometric least square mean ([6]; 15 mg QD): 2303.26 ng·h/mL
- Day 1 AUC0-24, geometric least square mean ([6]; 20 mg QD): 3159.74 ng·h/mL
- Day 7 AUCtau, geometric least square mean ([6]; 20 mg QD): 3184.88 ng·h/mL
- median Tmax ([6]; Part 2, Days 1 and 7, all dosing cohorts): approximately 2.0 hours
- time to steady state ([6]; Part 2, QD dosing, from trough concentrations): ≤ 3 days
- accumulation ([6]; Part 2, each MAD cohort, 7 days QD): No accumulation or minimal accumulation
- dose proportionality of plasma exposure ([6]; Part 2, multiple oral doses 5 to 20 mg, healthy subjects): exhibits dose proportionality; also recorded: approximately linear and dose proportional
- Cmax ([6]; Day 1, 5 mg QD oral, fasted): 105.0 (45.9) ng/ml
- AUC0-24 ([6]; Day 1, 5 mg QD): 797.9 (37.8) ng · h/mL
- Tmax ([6]; Day 1, 5 mg QD): 2.009 (1.01, 4.01) h
- Cmax ([6]; Day 1, 10 mg QD oral, fasted): 217.0 (46.2) ng/ml
- AUC0-24 ([6]; Day 1, 10 mg QD): 1703 (37.4) ng · h/mL
- Tmax ([6]; Day 1, 10 mg QD): 2.009 (2.01, 3.01) h
- Cmax ([6]; Day 1, 15 mg QD oral, fasted): 324.2 (34.9) ng/ml
- AUC0-24 ([6]; Day 1, 15 mg QD): 2204 (39.0) ng · h/mL
- Tmax ([6]; Day 1, 15 mg QD): 2.006 (1.01, 4.00) h
- Cmax ([6]; Day 1, 20 mg QD oral, fasted): 464.1 (26.1) ng/ml
- AUC0-24 ([6]; Day 1, 20 mg QD): 3160 (21.2) ng · h/mL
- Tmax ([6]; Day 1, 20 mg QD): 2.007 (2.00, 3.00) h
- AUCtau ([6]; Day 7, 5 mg QD): 915.5 (40.7) ng · h/mL
- Cmax ([6]; Day 7, 5 mg QD): 117.0 (44.4) ng/ml
- Ctau ([6]; Day 7, 5 mg QD): 10.70 (72.6) ng/ml
- Tmax ([6]; Day 7, 5 mg QD): 2.007 (1.01, 3.03) h
- t1/2 ([6]; Day 7, 5 mg QD): 8,846 (4.73, 25.1) h
- AUCtau ([6]; Day 7, 10 mg QD): 2023 (29.7) ng · h/mL
- Cmax ([6]; Day 7, 10 mg QD): 238.0 (22.6) ng/ml
- Ctau ([6]; Day 7, 10 mg QD): 25.47 (68.1) ng/ml
- Tmax ([6]; Day 7, 10 mg QD): 2.021 (2.01, 3.01) h
- t1/2 ([6]; Day 7, 10 mg QD): 8.512 (6.09, 12.3) h
- AUCtau ([6]; Day 7, 15 mg QD): 2303 (24.9) ng · h/mL
- Cmax ([6]; Day 7, 15 mg QD): 333.5 (29.7) ng/ml
- Ctau ([6]; Day 7, 15 mg QD): 19.02 (59.6) ng/ml
- Tmax ([6]; Day 7, 15 mg QD): 2.006 (1,01, 3.00) h
- t1/2 ([6]; Day 7, 15 mg QD): 7.534 (4.05, 12.2) h
- AUCtau ([6]; Day 7, 20 mg QD): 3185 (24.4) ng · h/mL
- Cmax ([6]; Day 7, 20 mg QD): 413.9 (14.9) ng/ml
- Ctau ([6]; Day 7, 20 mg QD): 30.75 (66.5) ng/ml
- Tmax ([6]; Day 7, 20 mg QD): 2.001 (1.00, 3.00) h
- t1/2 ([6]; Day 7, 20 mg QD): 8.332 (4.61, 11.0) h
- dose proportionality of steady state Cmax ([6]; Part 2 multiple ascending oral dose cohorts (FIG. 7)): approximately linear and dose-proportional
- dose proportionality of steady state AUCtau ([6]; Part 2 multiple ascending oral dose cohorts (FIG. 8)): approximately linear and dose-proportional
- correlation of BP with dose or exposure ([7]; Parts 1 and 2): no meaningful correlation
- slope of Δ diastolic BP-concentration model [7, 8]: 0.00151
- slope of Δ systolic BP-concentration model [7, 8]: 0.00686
